From patent publication US8575193B2, “N-substituted tetrahydroisoquinoline/isoindoline hydroxamic acid compounds” (4SC AG, priority 2008, dated 2013) come the findings set out here.

Counter-ions that a name gives are not always drawn.

A short description of this data set: Cellular cytotoxicity assay (Alamar Blue/Resazurin), HeLa. Conditions: human, HeLa cells, 72 hours incubation, Resazurin, read-out: HeLa Cytotoxicity [pIC50] (converted). The class given is cell-based. The procedure: The anti-proliferative activity of the compounds as described herein, is evaluated with various solid and hematological cancer cell lines using the Alamar Blue (Resazurin) cell viability assay (O'Brien et al, Eur J Biochem 267, 5421-5426, 2000). Resazurin is reduced to the fluorescent resorufin by cellular dehydrogenase activity, correlating with viable, proliferating cells. Test compounds are dissolved as 20 mM solutions in dimethylsulfoxide (DMSO) and subsequently diluted in semi-logarithmic steps. The cancer cell lines are seeded into 96 well flat bottom plates at respective cell densities in a volume of 200 μl per well to allow continuous proliferation during the experiment. 24 hours after seeding 1 μl each of the compound dilutions is added into each well of the 96 well plate. Wells containing untreated control cells are filled with 200 μl DMEM medium containing 0.5% v:v DMSO. The cells are then incubated with the substances for 72 hours at 37° C. in a humidified atmosphere containing 5% carbon dioxide. To determine the viability of the cells, 20 μl of a Resazurin solution (Sigma; 90 mg/l) are added. After 4 hours incubation at 37° C. the fluorescence is measured at an extinction of 544 nm and an emission of 590 nm. For the calculation of the cell viability the emission value from untreated cells is set as 100% viability and the emission rates of treated cells are set in relation to the values of untreated cells. Viabilities are expressed as % values. The corresponding pIC50 values of the compounds for cytotoxic activity are determined from the concentration-effect curves by means of non-linear regression.
(Alamar Blue is a resazurin reagent that responds to reducing activity.)
With `CNC(=O)N1CCc2cc(C(=O)NO)ccc2C1` [Example 4, N6-Hydroxy-N2-methyl-3,4-dihydroisoquinoline-2,6(1H)-dicarboxamide], the IC50 at 72 h was over 100 µM.

Consider `COc1ccc2[nH]c(C(=O)N3CCc4ccc(C(=O)NO)cc4C3)cc2c1` [Example 24, N-Hydroxy-2-[(5-methoxy-1H-indol-2-yl)carbonyl]-1,2,3,4-tetrahydroisoquinoline-7-carboxamide], for which the IC50 at 72 h is 1 to 100 µM.

As to `COCCOCC(=O)N1CCc2cc(C(=O)NO)ccc2C1` [Example 11, N-Hydroxy-2-[(2-methoxyethoxy)acetyl]-1,2,3,4-tetrahydroisoquinoline-6-carboxamide], the IC50 at 72 h was over 100 µM.

As to `O=C(NO)c1ccc2c(c1)CN(C(=O)Cc1ccccn1)CC2` [Example 21, N-Hydroxy-2-(pyridin-2-ylacetyl)-1,2,3,4-tetrahydroisoquinoline-7-carboxamide hydrochloride], the IC50 at 72 h is 1 to 100 µM.

Take `COCCCNC(=O)N1CCc2cc(C(=O)NO)ccc2C1` [Example 5, N6-Hydroxy-N2-(3-methoxypropyl)-3,4-dihydroisoquinoline-2,6(1H)-dicarboxamide]: the IC50 at 72 h is over 100 µM.

`O=C(NO)c1ccc2c(c1)CN(C(=O)C1CCOC1)CC2` (stereo not shown) [Example 20, N-Hydroxy-2-(tetrahydrofuran-3-ylcarbonyl)-1,2,3,4-tetrahydroisoquinoline-7-carboxamide]: the IC50 at 72 h was over 100 µM.

Regarding `O=C(NO)c1ccc2c(c1)CN(C(=O)Cc1c[nH]c3ccccc13)CC2` [Example 18, N-Hydroxy-2-(1H-indol-3-ylacetyl)-1,2,3,4-tetrahydroisoquinoline-7-carboxamide], the IC50 at 72 h was 1 to 100 µM.

For the compound `O=C(NO)c1ccc2c(c1)CN(C(=O)Cc1cccnc1)CC2` [Example 19, N-Hydroxy-2-(pyridin-3-ylacetyl)-1,2,3,4-tetrahydroisoquinoline-7-carboxamide hydrochloride], the IC50 at 72 h was 1 to 100 µM.

As to `O=C(NO)c1ccc2c(c1)CCN(C(=O)Cc1c[nH]c3ccccc13)C2` [Example 1, N-Hydroxy-2-(indol-3-ylacetyl)-1,2,3,4-tetrahydroisoquinoline-6-carboxamide hydrochloride], the IC50 at 72 h was 1 to 100 µM.

Regarding `CN(C)CCCC(=O)N1CCc2cc(C(=O)NO)ccc2C1` [Example 9, 2-[4-(Dimethylamino)butanoyl]-N-hydroxy-1,2,3,4-tetrahydroisoquinoline-6-carboxamide hydrochloride], the IC50 at 72 h is 1 to 100 µM.

In the case of `COc1ccc2[nH]c(C(=O)N3CCc4cc(C(=O)NO)ccc4C3)cc2c1` [Example 15, N-Hydroxy-2-[(5-methoxy-1H-indol-2-yl)carbonyl]-1,2,3,4-tetrahydroisoquinoline-6-carboxamide], the IC50 at 72 h was 1 to 100 µM.

As to `Cc1nccn1CC(=O)N1CCc2cc(C(=O)NO)ccc2C1` [Example 10, N-Hydroxy-2-[(2-methyl-1H-imidazol-1-yl)acetyl]-1,2,3,4-tetrahydroisoquinoline-6-carboxamide hydrochloride], the IC50 at 72 h is over 100 µM.

As for `O=C(NO)c1ccc2c(c1)CCN(C(=O)CCc1cccnc1)C2` [Example 7, N-Hydroxy-2-(3-pyridin-3-ylpropanoyl)-1,2,3,4-tetrahydroisoquinoline-6-carboxamide hydrochloride], the IC50 at 72 h is over 100 µM.

Consider `CC(=O)N1CCc2cc(C(=O)NO)ccc2C1` [Example 12, 2-Acetyl-N-hydroxy-1,2,3,4-tetrahydroisoquinoline-6-carboxamide], for which the IC50 at 72 h is over 100 µM.

Consider `Cc1ccc(C(=O)N2CCc3ccc(C(=O)NO)cc3C2)cc1` [Example 23, N-Hydroxy-2-(4-methylbenzoyl)-1,2,3,4-tetrahydroisoquinoline-7-carboxamide], for which the IC50 at 72 h was 1 to 100 µM.

Take `CC#CC(=O)N1CCc2ccc(C(=O)NO)cc2C1` [Example 17, 2-But-2-ynoyl-N-hydroxy-1,2,3,4-tetrahydroisoquinoline-7-carboxamide]: the IC50 at 72 h is 1 to 100 µM.

Regarding `O=C(NO)c1ccc2c(c1)CN(C(=O)NCCc1ccccc1)CC2` [Example 22, N7-Hydroxy-N2-(2-phenylethyl)-3,4-dihydroisoquinoline-2,7(1H)-dicarboxamide], the IC50 at 72 h is 1 to 100 µM.

Regarding `COCCCOC(=O)N1CCc2cc(C(=O)NO)ccc2C1` [Example 6, 3-Methoxypropyl-6-(hydroxycarbamoyl)-3,4-dihydroisoquinoline-2(1H)-carboxylate], the IC50 at 72 h is over 100 µM.

Take `O=C(NO)c1ccc2c(c1)CCN(C(=O)Cc1cccnc1)C2` [Example 8, N-Hydroxy-2-(pyridin-3-ylacetyl)-1,2,3,4-tetrahydroisoquinoline-6-carboxamide hydrochloride]: the IC50 at 72 h was over 100 µM.

On to `O=C(NO)c1ccc2c(c1)CCN(C(=O)C1CCOC1)C2` (stereo not shown) [Example 13, N-Hydroxy-2-(tetrahydrofuran-3-ylcarbonyl)-1,2,3,4-tetrahydroisoquinoline-6-carboxamide], for which the IC50 at 72 h is over 100 µM.

For `O=C(NO)c1ccc2c(c1)CCN(C(=O)C1CC1)C2` [Example 16, N-Hydroxy-2-(cyclopropylcarbonyl)-1,2,3,4-tetrahydroisoquinoline-6-carboxamide], the IC50 at 72 h is over 100 µM.

For `O=C(NO)c1ccc2c(c1)CCN(C(=O)C1CCC1)C2` [Example 3, 2-(Cyclobutylcarbonyl)-N-hydroxy-1,2,3,4-tetrahydroisoquinoline-6-carboxamide], the IC50 at 72 h was 1 to 100 µM.
